Drawing on ChEMBL document CHEMBL4145662, “Novel Nonsteroidal Progesterone Receptor (PR) Antagonists with a Phenanthridinone Skeleton” (ACS Med Chem Lett, 2018), this text covers IC50 and Activity for 30 molecules.

The first data set deals with T1, Progesterone receptor (Homo sapiens, UniProt P06401).
T1 sequence (P06401 whole entry): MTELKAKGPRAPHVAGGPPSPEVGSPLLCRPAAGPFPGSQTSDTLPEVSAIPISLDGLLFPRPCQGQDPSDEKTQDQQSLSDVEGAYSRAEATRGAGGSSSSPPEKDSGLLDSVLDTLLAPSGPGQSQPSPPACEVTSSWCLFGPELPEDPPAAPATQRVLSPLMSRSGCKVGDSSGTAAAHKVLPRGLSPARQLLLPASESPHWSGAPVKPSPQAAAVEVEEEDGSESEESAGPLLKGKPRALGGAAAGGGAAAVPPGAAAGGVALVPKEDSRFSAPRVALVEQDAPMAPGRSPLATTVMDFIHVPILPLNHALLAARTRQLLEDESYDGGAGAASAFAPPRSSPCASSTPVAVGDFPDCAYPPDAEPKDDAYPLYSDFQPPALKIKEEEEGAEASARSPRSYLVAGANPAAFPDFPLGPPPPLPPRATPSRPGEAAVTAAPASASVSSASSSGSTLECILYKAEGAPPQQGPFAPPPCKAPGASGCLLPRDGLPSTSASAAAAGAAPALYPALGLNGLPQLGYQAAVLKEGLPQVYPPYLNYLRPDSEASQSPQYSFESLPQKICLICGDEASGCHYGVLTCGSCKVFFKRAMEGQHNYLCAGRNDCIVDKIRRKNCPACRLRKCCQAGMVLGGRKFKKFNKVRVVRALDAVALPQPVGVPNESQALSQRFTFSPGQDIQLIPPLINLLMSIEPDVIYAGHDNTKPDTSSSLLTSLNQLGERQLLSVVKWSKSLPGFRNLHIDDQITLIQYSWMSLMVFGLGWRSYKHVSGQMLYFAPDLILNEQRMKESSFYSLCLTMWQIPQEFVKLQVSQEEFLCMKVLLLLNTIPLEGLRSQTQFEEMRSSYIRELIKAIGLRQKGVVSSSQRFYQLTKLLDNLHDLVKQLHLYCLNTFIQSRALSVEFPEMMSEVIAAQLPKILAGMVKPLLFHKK
The data set is described as follows: Antagonist activity at PR in human T47D cells assessed as inhibition of progesterone-induced alkaline phosphatase activity measured after 24 hrs. Type of data set: cell-based.
By IC50 is commonly meant the point on the concentration scale where inhibition reaches its midpoint. Regarding `CCCCCCn1c(=O)c2ccccc2c2cc(C(O)(C(F)(F)F)C(F)(F)F)ccc21`, the IC50 was 2500 nM.

Turning to `O=S(=O)(Nc1ccc(Oc2ccccc2)cc1)c1cccc(C(F)(F)F)c1`, the concentration for half-maximal inhibition (IC50) amounted to 107 nM.

Regarding `CCc1cc(C(O)(C(F)(F)F)C(F)(F)F)cc2c1[nH]c(=O)c1ccccc12`, the IC50 stood at 210 nM. On the same count and under the same terms, in the case of `O=c1[nH]c2ccc(C(O)(C(F)(F)F)C(F)(F)F)cc2c2ccccc12` it was 780 nM.

As for `CCCCn1c(=O)c2ccccc2c2cc(CO)ccc21`, the IC50 worked out at 8600 nM. As for `CCn1c(=O)c2ccccc2c2cc(C(O)(C(F)(F)F)C(F)(F)F)ccc21`, the 50% inhibitory concentration (IC50) came to 1400 nM. For the molecule `Cn1c(C#N)ccc1-c1ccc2oc(=O)ccc2c1`, the half-inhibitory concentration (IC50) is 123 nM. As for `CCCCn1c(=O)c2ccccc2c2cc(C(C)(C)C)ccc21`, the IC50 was found to be 8300 nM. Still for that read-out and setting: in the case of `Cn1c(=O)c2ccccc2c2cc(C(O)(C(F)(F)F)C(F)(F)F)ccc21` it was 340 nM; in that of `CCCCn1c(=O)c2ccccc2c2cc(CC)ccc21`, 7800 nM.

For `CCCCCCCCCn1c(=O)c2ccccc2c2cc(C(O)(C(F)(F)F)C(F)(F)F)ccc21`, the IC50 is 10000 nM. Consider `CCCCn1c(=O)c2ccccc2c2cc(C)ccc21`, for which the IC50 came out at 7900 nM. The same measure, in the same setting: in the case of `CCCCn1c(=O)c2ccccc2c2cc(C(O)(C(F)(F)F)C(F)(F)F)cc(OC)c21` it was 560 nM; in that of `O=c1[nH]c2c(F)cc(C(O)(C(F)(F)F)C(F)(F)F)cc2c2ccccc12`, 130 nM; in that of `Cc1cc(C(O)(C(F)(F)F)C(F)(F)F)cc2c3ccccc3c(=O)n(C)c12`, 180 nM. Consider `O=c1[nH]c2ccc(C(O)(C(F)(F)F)C(F)(F)F)cc2c2ccc(F)cc12`, for which the IC50 is 310 nM. Take `CCCCn1c(=O)c2ccccc2c2c(OC)c(C(O)(C(F)(F)F)C(F)(F)F)ccc21`: the concentration for half-maximal inhibition (IC50) came to 4000 nM.

Turning to `CCCc1cc(C(O)(C(F)(F)F)C(F)(F)F)cc2c1[nH]c(=O)c1ccccc12`, the IC50 was 360 nM. Turning to `CCCCn1c(=O)c2cc(OC)ccc2c2cc(C(O)(C(F)(F)F)C(F)(F)F)ccc21`, the half-inhibitory concentration (IC50) is 1100 nM. With `CCCCn1c(=O)c2ccccc2c2cc(C(O)(C(F)(F)F)C(F)(F)F)ccc21`, the IC50 came to 1200 nM. Still for that read-out and setting: next, `CCCCn1c(=O)c2ccc(OC)cc2c2cc(C(O)(C(F)(F)F)C(F)(F)F)ccc21`: 5800 nM; `CCCCn1c(=O)c2ccccc2c2ccccc21`: 7100 nM; `O=c1[nH]c2ccc(C(O)(C(F)(F)F)C(F)(F)F)cc2c2cccc(F)c12`: 730 nM. For the molecule `COc1cc(C(O)(C(F)(F)F)C(F)(F)F)cc2c1[nH]c(=O)c1ccccc12`, the IC50 is 270 nM. Turning to `CCCCn1c(=O)c2cccc(OC)c2c2cc(C(O)(C(F)(F)F)C(F)(F)F)ccc21`, the IC50 is 2700 nM. For the molecule `CCCn1c(=O)c2ccccc2c2cc(C(O)(C(F)(F)F)C(F)(F)F)ccc21`, the half-inhibitory concentration (IC50) stood at 3800 nM. Turning to `CCCCn1c(=O)c2ccccc2c2cc(C(O)(C(F)(F)F)C(F)(F)F)c(OC)cc21`, the 50% inhibitory concentration (IC50) was determined as 410 nM. In the case of `CCCCn1c(=O)c2c(OC)cccc2c2cc(C(O)(C(F)(F)F)C(F)(F)F)ccc21`, the IC50 amounted to 12000 nM. For the molecule `O=c1[nH]c2ccc(C(O)(C(F)(F)F)C(F)(F)F)cc2c2cc(F)ccc12`, the IC50 came out at 1000 nM.

The next data set has as its target T1, Progesterone receptor. The data set is described as follows: Agonist activity at PR in human T47D cells at 10 uM. In kind it is cell-based.
`CC#C[C@]1(O)CC[C@H]2[C@@H]3CCC4=CC(=O)CCC4=C3[C@@H](c3ccc(N(C)C)cc3)C[C@@]21C` [MIFEPRISTONE]: the Activity entry was “Not Active”. Same read-out and setting: next, `O=S(=O)(Nc1ccc(Oc2ccccc2)cc1)c1cccc(C(F)(F)F)c1`: “Not Active”. With `Cn1c(C#N)ccc1-c1ccc2oc(=O)ccc2c1`, the Activity result is reported as “Not Active”.
